# Source: patent publication US8293979B2, “Weed controller metabolism proteins, genes, thereof and use of the same” (Sumitomo Chemical Company, Limited, priority 2001, dated 2012)
# Legend:
# Assay in all cases: Metabolism of compound (II) by a microorganism
# Format in all cases: in vitro ADME
# Settings in all cases: compound (II) at 100 ppm, 7 to 8 days at 30° C.
# [1] = test system: Saccharopolyspora taberi JCM9383T
# Protocol: (§1) The HPLC for content analysis in Examples 1, 41 and 42 and fraction purification of the compound was conducted under the conditions shown below.
# (§2) The various microorganisms shown in Tables 1 and 2 were grown in ISP2 agar medium (1.0% (w/v) malt extract, 0.4% (w/v) yeast extract, 0.4% (w/v) glucose, 2.0% (w/v) agar, pH 7.3). A “loopful” of the each microorganism was added to TGY medium (0.5% (w/v) tryptone, 0.5% (w/v) yeast extract, 0.1% (w/v) glucose, 0.01% (w/v) KH2PO4, pH 7.0) and incubated with shaking at 30° C. for 2 to 4 days. One-tenth milliliter (0.1 ml) of the obtained culture was incubated with shaking in 3 ml of sporulation medium (0.1% (w/v) of meat extract, 0.2% (w/v) tryptose, 1% glucose, pH 7.1) containing compound (II) at 100 ppm for 7 to 8 days at 30° C. Fifty microliters (50 μl) of 2N HCl was added to the resulting culture and this was extracted with 3 ml of ethyl acetate. The obtained ethyl acetate layer was analyzed on the HPLC. The concentration of compound (II) was reduced (column retention time of 23.9 minutes) and new peaks were detected for compounds at retention times of 21.6 minutes and 22.2 minutes (each referred to as metabolite (I) and metabolite (II)).
# [2] = test system: Streptomyces achromogenes IFO12735
# Protocol: as §1, §2
# [3] = test system: Streptomyces afghaniensis IFO12831
# Protocol: as §1, §2
# [4] = test system: Streptomyces argenteolus var. toyon ATCC21468t
# Protocol: as §1, §2
# [5] = test system: Streptomyces argenteolus var. toyonakensis ATCC21468
# Protocol: as §1, §2
# [6] = test system: Streptomyces cacaoiasoensis IFO13813
# Protocol: as §1, §2
# [7] = test system: Streptomyces chartreusis ATCC21901
# Protocol: as §1, §2
# [8] = test system: Streptomyces erythreus ATCC11635
# Protocol: as §1, §2
# [9] = test system: Streptomyces fimicarius ATCC21900
# Protocol: as §1, §2
# [10] = test system: Streptomyces globisporus subsp. globisporus ATCC21903
# Protocol: as §1, §2
# [11] = test system: Streptomyces griseochromogenes ATCC14511
# Protocol: as §1, §2
# [12] = test system: Streptomyces griseofuscus IFO12870t
# Protocol: as §1, §2
# [13] = test system: Streptomyces griseolus ATCC11796
# Protocol: as §1, §2
# [14] = test system: Streptomyces griseus ATCC11429
# Protocol: as §1, §2
# [15] = test system: Streptomyces griseus ATCC12475
# Protocol: as §1, §2
# [16] = test system: Streptomyces griseus ATCC15395
# Protocol: as §1, §2
# [17] = test system: Streptomyces griseus IFO3102
# Protocol: as §1, §2
# [18] = test system: Streptomyces hachijoensis IFO12782
# Protocol: as §1, §2
# [19] = test system: Streptomyces kasugaensis ATCC15714
# Protocol: as §1, §2
# [20] = test system: Streptomyces kasugaensis IFO13851
# Protocol: as §1, §2
# [21] = test system: Streptomyces lavendulae ATCC11924
# Protocol: as §1, §2
# [22] = test system: Streptomyces lydicus IFO13058
# Protocol: as §1, §2
# [23] = test system: Streptomyces nogalater IFO13445
# Protocol: as §1, §2
# [24] = test system: Streptomyces ornatus IFO13069t
# Protocol: as §1, §2
# [25] = test system: Streptomyces phaeochromogenes IFO12898
# Protocol: as §1, §2
# [26] = test system: Streptomyces purpurascens ATCC25489
# Protocol: as §1, §2
# [27] = test system: Streptomyces rimosus ATCC10970
# Protocol: as §1, §2
# [28] = test system: Streptomyces roseochromogenes ATCC13400t
# Protocol: as §1, §2
# [29] = test system: Streptomyces roseochromogenes ATCC13400
# Protocol: as §1, §2
# [30] = test system: Streptomyces roseochromogenus ATCC21895
# Protocol: as §1, §2
# [31] = test system: Streptomyces sp. SANK62585
# Protocol: as §1, §2
# [32] = test system: Streptomyces testaceus ATCC21469
# Protocol: as §1, §2
# [33] = test system: Streptomyces thermocoerulescens IFO14273t
# Protocol: as §1, §2
smiles,measurement,setting,value
C[C@@H](Oc1cc(-n2c(=O)cc(C(F)(F)F)n(C)c2=O)c(F)cc1Cl)C(=O)O [compound (II)],concentration of compound (II),[1],82.9 ppm
same,concentration of compound (II),[2],0.0 ppm
same,concentration of compound (II),[3],80.6 ppm
same,concentration of compound (II),[4],90.1 ppm
same,concentration of compound (II),[5],13.0 ppm
same,concentration of compound (II),[6],77.8 ppm
same,concentration of compound (II),[7],61.1 ppm
same,concentration of compound (II),[8],54.6 ppm
same,concentration of compound (II),[9],46.5 ppm
same,concentration of compound (II),[10],79.9 ppm
same,concentration of compound (II),[11],53.9 ppm
same,concentration of compound (II),[12],49.5 ppm
same,concentration of compound (II),[13],0 ppm
same,concentration of compound (II),[14],30.3 ppm
same,concentration of compound (II),[15],51.1 ppm
same,concentration of compound (II),[16],75.2 ppm
same,concentration of compound (II),[17],22.6 ppm
same,concentration of compound (II),[18],83.9 ppm
same,concentration of compound (II),[19],92.4 ppm
same,concentration of compound (II),[20],66.3 ppm
same,concentration of compound (II),[21],89.6 ppm
same,concentration of compound (II),[22],62.0 ppm
same,concentration of compound (II),[23],12.8 ppm
same,concentration of compound (II),[24],65.3 ppm
same,concentration of compound (II),[25],46.4 ppm
same,concentration of compound (II),[26],70.9 ppm
same,concentration of compound (II),[27],70.9 ppm
same,concentration of compound (II),[28],71.8 ppm
same,concentration of compound (II),[29],81.9 ppm
same,concentration of compound (II),[30],74.2 ppm
same,concentration of compound (II),[31],54.6 ppm
same,concentration of compound (II),[32],18.4 ppm
same,concentration of compound (II),[33],51.7 ppm
